Experimental data taken from the kinase profiling compilation of Christmann-Franck et al. (2016).

How the values were obtained:
Test in all cases: KINOMEscan competition binding
Details in all cases: compound 10.0 µM
ADCK4 (human) = ADCK4 (human) (UniProt Q96D53)
CAMK2B (human) = CAMK2B (human) (UniProt Q13554)
CDK17 (human) = CDK17 (human) (UniProt Q00537)
CDKL2 (human) = CDKL2 (human) (UniProt Q92772)
CHEK1 (human) = CHEK1 (human) (UniProt O14757)
CSNK1A1L (human) = CSNK1A1L (human) (UniProt Q8N752)
CSNK2A1 (human) = CSNK2A1 (human) (UniProt P68400)
DAPK1 (human) = DAPK1 (human) (UniProt P53355)
DCLK2 (human) = DCLK2 (human) (UniProt Q8N568)
DCLK3 (human) = DCLK3 (human) (UniProt Q9C098)
EIF2AK1 (human) = EIF2AK1 (human) (UniProt Q9BQI3)
EPHA3 (human) = EPHA3 (human) (UniProt P29320)
EPHB1 (human) = EPHB1 (human) (UniProt P54762)
EPHB3 (human) = EPHB3 (human) (UniProt P54753)
GRK4 (human) = GRK4 (human) (UniProt P32298)
HIPK2 (human) = HIPK2 (human) (UniProt Q9H2X6)
HIPK4 (human) = HIPK4 (human) (UniProt Q8NE63)
ICK (human) = ICK (human) (UniProt Q9UPZ9)
LYN (human) = LYN (human) (UniProt P07948)
MAP2K4 (human) = MAP2K4 (human) (UniProt P45985)
MAP3K1 (human) = MAP3K1 (human) (UniProt Q13233)
MAP3K15 (human) = MAP3K15 (human) (UniProt Q6ZN16)
MAPK4 (human) = MAPK4 (human) (UniProt P31152)
MAPK7 (human) = MAPK7 (human) (UniProt Q13164)
MARK4 (human) = MARK4 (human) (UniProt Q96L34)
MAST1 (human) = MAST1 (human) (UniProt Q9Y2H9)
MYO3A (human) = MYO3A (human) (UniProt Q8NEV4)
NEK5 (human) = NEK5 (human) (UniProt Q6P3R8)
NEK9 (human) = NEK9 (human) (UniProt Q8TD19)
PAK2 (human) = PAK2 (human) (UniProt Q13177)
PAK3 (human) = PAK3 (human) (UniProt O75914)
PIK3CD (human) = PIK3CD (human) (UniProt O00329)
PIM2 (human) = PIM2 (human) (UniProt Q9P1W9)
PIP4K2C (human) = PIP4K2C (human) (UniProt Q8TBX8)
PRKCE (human) = PRKCE (human) (UniProt Q02156)
RPS6KA6 KD2 (human) = RPS6KA6 KD2 (human) (UniProt Q9UK32)
SRPK2 (human) = SRPK2 (human) (UniProt P78362)
TAOK1 (human) = TAOK1 (human) (UniProt Q7L7X3)
TAOK2 (human) = TAOK2 (human) (UniProt Q9UL54)
TRPM6 (human) = TRPM6 (human) (UniProt Q9BX84)

EPHB1 (human), sequence (P54762 whole entry, looked up): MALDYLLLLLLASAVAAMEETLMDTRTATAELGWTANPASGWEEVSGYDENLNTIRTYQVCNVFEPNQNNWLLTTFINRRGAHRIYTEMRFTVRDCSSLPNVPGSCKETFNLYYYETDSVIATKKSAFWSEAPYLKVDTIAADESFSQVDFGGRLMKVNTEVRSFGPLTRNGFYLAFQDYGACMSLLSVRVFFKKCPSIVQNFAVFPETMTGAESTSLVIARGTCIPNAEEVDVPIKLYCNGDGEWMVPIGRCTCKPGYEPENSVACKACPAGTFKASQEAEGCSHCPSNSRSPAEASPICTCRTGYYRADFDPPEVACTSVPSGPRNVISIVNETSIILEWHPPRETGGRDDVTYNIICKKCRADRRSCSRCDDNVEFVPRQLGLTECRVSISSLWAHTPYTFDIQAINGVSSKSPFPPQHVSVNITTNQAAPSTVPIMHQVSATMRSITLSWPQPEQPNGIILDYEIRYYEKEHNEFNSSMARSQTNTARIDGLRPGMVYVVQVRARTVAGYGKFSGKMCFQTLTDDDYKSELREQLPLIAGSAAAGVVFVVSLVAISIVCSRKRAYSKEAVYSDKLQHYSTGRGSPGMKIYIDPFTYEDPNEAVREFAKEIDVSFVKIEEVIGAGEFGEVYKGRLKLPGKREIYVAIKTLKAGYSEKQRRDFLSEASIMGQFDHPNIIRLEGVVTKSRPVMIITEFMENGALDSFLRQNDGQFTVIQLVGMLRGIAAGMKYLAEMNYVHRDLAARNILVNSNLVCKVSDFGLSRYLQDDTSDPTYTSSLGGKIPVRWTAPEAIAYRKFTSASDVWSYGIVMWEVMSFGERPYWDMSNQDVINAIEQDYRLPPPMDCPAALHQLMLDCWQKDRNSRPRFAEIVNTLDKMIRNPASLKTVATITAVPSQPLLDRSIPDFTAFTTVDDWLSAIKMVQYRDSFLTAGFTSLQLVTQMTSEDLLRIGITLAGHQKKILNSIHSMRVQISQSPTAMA
MYO3A (human), sequence (Q8NEV4 whole entry, looked up): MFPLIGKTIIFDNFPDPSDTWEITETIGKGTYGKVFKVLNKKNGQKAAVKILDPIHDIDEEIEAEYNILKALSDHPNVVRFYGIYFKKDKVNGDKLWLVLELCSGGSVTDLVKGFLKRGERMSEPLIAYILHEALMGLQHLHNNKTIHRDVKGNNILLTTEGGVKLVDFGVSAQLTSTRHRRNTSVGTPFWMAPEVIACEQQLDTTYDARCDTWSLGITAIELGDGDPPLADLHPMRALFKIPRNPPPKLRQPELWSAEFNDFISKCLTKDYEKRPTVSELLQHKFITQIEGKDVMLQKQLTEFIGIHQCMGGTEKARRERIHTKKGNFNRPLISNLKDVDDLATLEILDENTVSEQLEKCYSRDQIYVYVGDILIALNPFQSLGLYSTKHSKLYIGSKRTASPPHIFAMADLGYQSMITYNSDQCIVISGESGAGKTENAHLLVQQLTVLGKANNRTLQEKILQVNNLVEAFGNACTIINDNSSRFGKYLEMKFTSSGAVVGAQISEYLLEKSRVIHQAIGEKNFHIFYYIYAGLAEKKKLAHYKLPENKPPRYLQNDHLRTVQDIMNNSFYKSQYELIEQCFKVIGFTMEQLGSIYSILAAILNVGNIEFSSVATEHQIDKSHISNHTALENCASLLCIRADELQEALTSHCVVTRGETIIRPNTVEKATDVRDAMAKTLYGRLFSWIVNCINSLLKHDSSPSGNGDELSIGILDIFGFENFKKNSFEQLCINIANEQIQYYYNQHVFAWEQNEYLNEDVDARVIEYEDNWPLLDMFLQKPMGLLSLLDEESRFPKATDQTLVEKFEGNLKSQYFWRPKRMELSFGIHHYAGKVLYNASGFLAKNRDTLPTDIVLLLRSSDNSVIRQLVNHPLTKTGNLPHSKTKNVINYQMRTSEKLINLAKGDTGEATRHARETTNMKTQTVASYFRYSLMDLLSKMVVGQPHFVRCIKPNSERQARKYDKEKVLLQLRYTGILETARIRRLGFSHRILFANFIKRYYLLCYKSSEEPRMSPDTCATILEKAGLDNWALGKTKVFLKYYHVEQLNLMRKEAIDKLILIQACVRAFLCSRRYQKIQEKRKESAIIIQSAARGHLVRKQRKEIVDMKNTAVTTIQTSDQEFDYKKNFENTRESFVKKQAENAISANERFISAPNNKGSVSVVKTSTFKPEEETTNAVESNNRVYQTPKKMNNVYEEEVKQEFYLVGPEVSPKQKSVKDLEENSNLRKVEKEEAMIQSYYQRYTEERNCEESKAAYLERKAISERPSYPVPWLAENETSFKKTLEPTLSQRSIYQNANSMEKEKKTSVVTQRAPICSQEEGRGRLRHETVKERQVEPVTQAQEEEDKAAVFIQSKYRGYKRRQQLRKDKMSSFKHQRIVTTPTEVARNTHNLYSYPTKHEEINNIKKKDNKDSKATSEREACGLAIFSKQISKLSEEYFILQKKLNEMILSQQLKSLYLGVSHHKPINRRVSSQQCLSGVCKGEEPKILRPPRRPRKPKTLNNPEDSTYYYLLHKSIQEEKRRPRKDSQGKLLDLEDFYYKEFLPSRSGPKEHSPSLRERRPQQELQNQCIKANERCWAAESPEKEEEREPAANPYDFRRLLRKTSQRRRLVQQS
EPHB3 (human), sequence (P54753 whole entry, looked up): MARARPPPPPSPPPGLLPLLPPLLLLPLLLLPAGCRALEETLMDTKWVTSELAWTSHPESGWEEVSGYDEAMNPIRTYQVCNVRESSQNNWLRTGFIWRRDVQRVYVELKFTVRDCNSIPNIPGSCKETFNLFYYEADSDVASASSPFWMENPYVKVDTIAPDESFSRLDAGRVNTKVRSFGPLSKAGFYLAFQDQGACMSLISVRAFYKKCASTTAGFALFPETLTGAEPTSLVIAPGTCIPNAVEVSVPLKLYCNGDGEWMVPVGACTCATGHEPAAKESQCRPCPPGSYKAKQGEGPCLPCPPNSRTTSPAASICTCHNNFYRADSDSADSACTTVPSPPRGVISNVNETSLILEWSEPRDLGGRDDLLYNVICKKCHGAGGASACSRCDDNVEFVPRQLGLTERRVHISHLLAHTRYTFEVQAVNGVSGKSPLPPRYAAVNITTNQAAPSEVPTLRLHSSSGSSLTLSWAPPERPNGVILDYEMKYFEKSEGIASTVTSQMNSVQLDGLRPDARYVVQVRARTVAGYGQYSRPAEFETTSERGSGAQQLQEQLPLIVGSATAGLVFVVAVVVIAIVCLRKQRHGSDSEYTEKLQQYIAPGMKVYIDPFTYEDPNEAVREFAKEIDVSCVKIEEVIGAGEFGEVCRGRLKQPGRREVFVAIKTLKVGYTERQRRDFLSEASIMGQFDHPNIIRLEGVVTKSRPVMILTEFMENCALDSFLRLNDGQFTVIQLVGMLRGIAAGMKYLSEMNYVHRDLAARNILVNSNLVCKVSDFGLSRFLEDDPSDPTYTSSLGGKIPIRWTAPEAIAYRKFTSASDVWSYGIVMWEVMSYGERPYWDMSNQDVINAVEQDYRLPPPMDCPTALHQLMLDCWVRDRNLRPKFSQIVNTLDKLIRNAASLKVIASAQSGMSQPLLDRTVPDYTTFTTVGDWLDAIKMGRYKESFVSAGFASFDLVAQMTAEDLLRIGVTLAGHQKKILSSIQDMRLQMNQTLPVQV
MAPK4 (human), sequence (P31152 whole entry, looked up): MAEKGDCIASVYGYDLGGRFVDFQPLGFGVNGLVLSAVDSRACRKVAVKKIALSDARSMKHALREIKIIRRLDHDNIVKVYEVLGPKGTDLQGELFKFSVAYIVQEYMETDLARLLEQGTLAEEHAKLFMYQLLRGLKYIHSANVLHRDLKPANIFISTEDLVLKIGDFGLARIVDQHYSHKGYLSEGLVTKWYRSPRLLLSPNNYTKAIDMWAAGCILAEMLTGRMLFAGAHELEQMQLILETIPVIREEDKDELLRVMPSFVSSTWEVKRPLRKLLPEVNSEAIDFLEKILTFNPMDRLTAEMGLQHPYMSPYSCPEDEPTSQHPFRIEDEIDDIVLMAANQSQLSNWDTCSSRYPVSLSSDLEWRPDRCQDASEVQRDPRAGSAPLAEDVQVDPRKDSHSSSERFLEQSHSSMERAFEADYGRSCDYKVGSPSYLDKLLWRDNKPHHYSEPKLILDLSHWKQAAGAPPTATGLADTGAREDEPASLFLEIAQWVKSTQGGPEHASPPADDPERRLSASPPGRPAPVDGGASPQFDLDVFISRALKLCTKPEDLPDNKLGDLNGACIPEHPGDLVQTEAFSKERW
SRPK2 (human), sequence (P78362 whole entry, looked up): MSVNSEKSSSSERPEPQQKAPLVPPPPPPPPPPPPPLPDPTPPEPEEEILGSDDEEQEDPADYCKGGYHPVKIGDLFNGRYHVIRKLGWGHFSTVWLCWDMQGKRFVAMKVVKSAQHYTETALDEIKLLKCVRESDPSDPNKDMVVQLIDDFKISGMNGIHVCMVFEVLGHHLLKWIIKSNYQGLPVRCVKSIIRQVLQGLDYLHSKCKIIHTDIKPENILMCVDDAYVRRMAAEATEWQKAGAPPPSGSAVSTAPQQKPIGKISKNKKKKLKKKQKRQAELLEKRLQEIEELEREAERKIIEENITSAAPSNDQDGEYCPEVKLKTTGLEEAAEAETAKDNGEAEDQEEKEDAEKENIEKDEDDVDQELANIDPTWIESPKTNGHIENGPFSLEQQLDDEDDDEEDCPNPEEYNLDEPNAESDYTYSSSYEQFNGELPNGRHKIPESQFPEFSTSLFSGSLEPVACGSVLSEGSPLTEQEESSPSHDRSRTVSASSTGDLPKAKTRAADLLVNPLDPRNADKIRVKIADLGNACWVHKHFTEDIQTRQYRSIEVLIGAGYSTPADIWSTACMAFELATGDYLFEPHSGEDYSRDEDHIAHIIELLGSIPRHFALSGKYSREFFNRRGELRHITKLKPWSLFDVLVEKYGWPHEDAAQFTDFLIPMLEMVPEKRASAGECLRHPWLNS

| Compound | kinase still bound, per cent of control (ADCK4 (human)) [%] | kinase still bound, per cent of control (CAMK2B (human)) [%] | kinase still bound, per cent of control (CDK17 (human)) [%] | kinase still bound, per cent of control (CDKL2 (human)) [%] | kinase still bound, per cent of control (CHEK1 (human)) [%] | kinase still bound, per cent of control (CSNK1A1L (human)) [%] | kinase still bound, per cent of control (CSNK2A1 (human)) [%] | kinase still bound, per cent of control (DAPK1 (human)) [%] | kinase still bound, per cent of control (DCLK2 (human)) [%] | kinase still bound, per cent of control (DCLK3 (human)) [%] | kinase still bound, per cent of control (EIF2AK1 (human)) [%] | kinase still bound, per cent of control (EPHA3 (human)) [%] | kinase still bound, per cent of control (EPHB1 (human)) [%] | kinase still bound, per cent of control (EPHB3 (human)) [%] | kinase still bound, per cent of control (GRK4 (human)) [%] | kinase still bound, per cent of control (HIPK2 (human)) [%] | kinase still bound, per cent of control (HIPK4 (human)) [%] | kinase still bound, per cent of control (ICK (human)) [%] | kinase still bound, per cent of control (LYN (human)) [%] | kinase still bound, per cent of control (MAP2K4 (human)) [%] | also measured |
| --- | --- | --- | --- | --- | --- | --- | --- | --- | --- | --- | --- | --- | --- | --- | --- | --- | --- | --- | --- | --- | --- |
| C=CC(=O)Nc1ccc(C(=O)c2sc(Nc3ccc(N4CCN(C)CC4)cc3OC)nc2N)cc1 | 45 | 0 | 78 | 86 | 73 | 78 | 14 | 9.4 | 28 | 3.8 | 100 | 80 | 98 | 76 | 52 | 40 | 4.6 | 32 | 100 | 24 | kinase still bound, per cent of control (MAP3K1 (human)): 100%; kinase still bound, per cent of control (MAP3K15 (human)): 9.2%; kinase still bound, per cent of control (MAPK4 (human)): 100%; kinase still bound, per cent of control (MAPK7 (human)): 9.8%; kinase still bound, per cent of control (MARK4 (human)): 85%; kinase still bound, per cent of control (MAST1 (human)): 0%; kinase still bound, per cent of control (MYO3A (human)): 35%; kinase still bound, per cent of control (NEK5 (human)): 100%; kinase still bound, per cent of control (NEK9 (human)): 100%; kinase still bound, per cent of control (PAK2 (human)): 68%; kinase still bound, per cent of control (PAK3 (human)): 100%; kinase still bound, per cent of control (PIK3CD (human)): 100%; kinase still bound, per cent of control (PIM2 (human)): 100%; kinase still bound, per cent of control (PIP4K2C (human)): 20%; kinase still bound, per cent of control (PRKCE (human)): 81%; kinase still bound, per cent of control (RPS6KA6 KD2 (human)): 0.7%; kinase still bound, per cent of control (SRPK2 (human)): 95%; kinase still bound, per cent of control (TAOK1 (human)): 32%; kinase still bound, per cent of control (TAOK2 (human)): 20%; kinase still bound, per cent of control (TRPM6 (human)): 35% |
| N#Cc1cc(-c2ccnc(Nc3ccc(-n4cnc(-c5cccnc5)n4)cc3)n2)cc(N2CCOCC2)c1 | 0.25 | 37 | 18 | 2 | 100 | 80 | 2.2 | 60 | 100 | 100 | 100 | 58 | 90 | 88 | 37 | 6.2 | 13 | 2.6 | 78 | 2.8 | kinase still bound, per cent of control (MAP3K1 (human)): 100%; kinase still bound, per cent of control (MAP3K15 (human)): 66%; kinase still bound, per cent of control (MAPK4 (human)): 5%; kinase still bound, per cent of control (MAPK7 (human)): 100%; kinase still bound, per cent of control (MARK4 (human)): 78%; kinase still bound, per cent of control (MAST1 (human)): 100%; kinase still bound, per cent of control (MYO3A (human)): 69%; kinase still bound, per cent of control (NEK5 (human)): 1.4%; kinase still bound, per cent of control (NEK9 (human)): 63%; kinase still bound, per cent of control (PAK2 (human)): 72%; kinase still bound, per cent of control (PAK3 (human)): 100%; kinase still bound, per cent of control (PIK3CD (human)): 100%; kinase still bound, per cent of control (PIM2 (human)): 100%; kinase still bound, per cent of control (PIP4K2C (human)): 2.8%; kinase still bound, per cent of control (PRKCE (human)): 100%; kinase still bound, per cent of control (RPS6KA6 KD2 (human)): 88%; kinase still bound, per cent of control (SRPK2 (human)): 34%; kinase still bound, per cent of control (TAOK1 (human)): 20%; kinase still bound, per cent of control (TAOK2 (human)): 37%; kinase still bound, per cent of control (TRPM6 (human)): 100% |
